The numbers were not newly measured in patent US20040158054A1, “Di-ribonucleotides as specific viral RNA-polymerase inhibitors for the treatment or prevention of viral infections” (priority 2003, published 2004), which cites them from elsewhere.

Series [1] concerns neoplastic cells.
Series [2] deals with 6-mercaptopurine-resistant cancer cell lines.

Structures are written as SMILES.

Take `O=P(O)(OC[C@H]1O[C@@H](n2cnc3c(=S)[nH]cnc32)[C@H](O)[C@@H]1O)OC[C@H]1O[C@@H](n2cnc3c(=S)nc[nH]c32)[C@H](O)[C@@H]1O` [bis(thioinosine)-5′,5′-phosphate]: in series [1] (relative to 6-MP), the “fold more potent against neoplastic cells than 6-MP” value is given as 240 fold. Besides, the “fold more potent against neoplastic cells than 6-MP riboside” value in series [1] (relative to 6-MP riboside) is given as 25 fold. For the same molecule, the “inhibition of 6-mercaptopurine-resistant cancer cell lines” value in series [2] was “inhibit”.
